The text below walks through data of paper PMC9179882 (Cancers, 2022).

SMILES strings stand for the structures.

The subject of test [1] is CMYC G4. In words: TOPRO3 fluorescent intercalator displacement (FID) assay, CMYC G4. In kind it is binding. As to conditions: GA 10 µM, relative to GA-free control, CMYC promoter G4. As for the experimental part:
(§1) G4-oligonucleotides listed in Supplementary Table S3 were purchased from Integrated DNA Technologies (Clareville, IA, USA). All of them were dissolved in G4s buffer (10 mM potassium phosphate, 100 mM potassium chloride at pH 7.0), heated at 95 °C for 10 min, slowly cooled to RT, and stored at 4 °C.
(§2) We used TOPRO3 (T3605, Thermo Scientific, MA, USA) as a fluorescent intercalator for FID assays. In particular, […] TOPRO3 was incubated with […] prefolded G4s and exposed to 10 µM GA in 96-well plates. TOPRO3 was excited at 642 nm, and emission profile was monitored between 650–800 nm with Infinite M200 Plate Reader (Tecan). Fluorescence values were calculated as follows: %Fluorescence = A/B × 100; where (A) is the fluorescence value in presence of GA, and (B) corresponds to the fluorescence value in GA-free controls. All assays were conducted in triplicate. The G4-oligonucleotides used in the current study are listed in Supplementary Table S3.

Test [2] has as its system CMYC (CD and UV-vis oligonucleotide) (DNA, G4) TGGGGAGGGTGGGGAGGGTGGGGAAGG
Nature of the test: UV-vis titration at 265 nm. As to conditions: 100 mM KCl, 10 mM potassium phosphate; pH 7.0, 25 °C; 5 µM DNA; GA to 1:20 DNA:GA.

Test [3] deals with 5′ETS (DNA, G4) GGGGGGCGGGTGGTTGGG
Nature of the test: fluorescent intercalator displacement (TOPRO3). As to conditions: oligonucleotide prefolded in 100 mM KCl, 10 mM potassium phosphate; TOPRO3 displaced; 10 µM GA, single concentration; prefolding buffer pH 7.0.

The target of test [4] is CMYC G4. Nature of the test: UV-vis titration, CMYC G4. In kind it is binding. As to conditions: UV-vis titration at 265 nm, CMYC G4, 25 °C, pH 7.0; read-out: dissociation constant (Kd). As for the experimental part:
as §1
UV-vis absorption spectra were registered in a Varian Cary 50 UV-vis spectrophotometer at 25 °C. Concentration of the prefolded G4 DNA was 5 μM in G4s buffer (10 mM potassium phosphate buffer containing 100 mM potassium chloride at pH 7.0). Once the DNA was placed in the cuvette, a concentrated solution of GA (1 mM) was routinely added, 1 μL each time, with a Hamilton syringe and subsequently mixed with a pipette. After each addition of the GA solution, a UV-vis spectrum was recorded. In total, 10 μL of GA solution were added, with a final ratio of 1:20 G4 DNA:GA. For the blank, the same experiment with the successive additions was repeated, beginning just with buffer in the cuvette. […] Dissociation constants (Kd) were evaluated at 265 nm using the following equation:(1) A=Am+(Aml-Am)×(M+L+Kd)−(M+L+Kd)^2−4×M×L/2×M where A is the absorbance signal, Am is the signal of DNA in absence of the ligand, Aml is the signal of DNA in presence of the ligand, M is the total concentration of DNA, L is the total concentration of ligand, and Kd is the dissociation constant.

A further test relates to 5′ETS G4. Nature of the test: TOPRO3 fluorescent intercalator displacement (FID) assay, 5′ETS G4. As to conditions: GA 10 µM, relative to GA-free control. In kind it is binding. How it is done:
as §1, §2

The subject of test [5] is CMYC (CD and UV-vis oligonucleotide) (DNA, G4) TGGGGAGGGTGGGGAGGGTGGGGAAGG
In words: circular dichroism. As to conditions: 100 mM KCl, 10 mM potassium phosphate; pH 7.0, 25 °C; 10 µM DNA, 100 µM GA; positive band decreased, no induced CD. (In general: Circular dichroism is widely used to follow secondary structure.)

Another test relates to SW480 cells. In words: Cell cycle analysis by propidium iodide flow cytometry. In kind it is cell-based, human. As to conditions: SW480, GA IC50 for 24 h. As for the experimental part:
Cell cycle analyses were carried out by flow cytometry with propidium iodide (PI) (P4864, Merck, Darmstadt, Germany). Cells (10^6) were seeded into 10 cm culture dishes and treated with GA IC50 for 24 h or with the vehicle DMSO as control. Cells were then fixed with ice-cold 70% ethanol on ice and stained with 0.04 mg/mL PI and 0.1 mg/mL ribonuclease A (19101, Qiagen, Hilden, Germany). Cell cycle distribution was determined by an analytical DNA flow cytometer (FACSVerse, BD Biosciences) with instrument settings on low mode and FlowJo software v10.
GA is widely present in the plant kingdom and largely found in different food sources. According to its cytotoxic activity (shown above), cell cycle analysis was performed on SW480 cells by FACS with propidium iodide staining (Figure 1C). After GA IC50 treatment for 24 h, the frequency of cells at different stages of the cell cycle changed with respect to non-treated cells (45.34% of cells at G1, 34.16% at S, 7.65% at G2/M). […] To explore this hypothesis, we determined the intracellular localization of nucleolar proteins by immunofluorescence of SW480 cells treated with GA IC50 for 6 h because we had previously observed that some DNA-binding compounds affect nucleolar organization. In particular, we analyzed three proteins that are indicative of nucleolus status, such as nucleolin (NCL), fibrillarin (FBL), and Pol I catalytic subunit A (POLR1A) (Figure 1D).
(Flow cytometry measures light scatter and fluorescence of single cells or particles in a stream.)

A word on the Kd: it is the equilibrium constant for the complex coming apart. With `O=C(O)c1cc(O)c(O)c(O)c1` [Gallic acid, 3,4,5-trihydroxybenzoic acid], the figures for the TOPRO3 fluorescence percentage with CMYC G4 [1] and in the test with 5′ETS G4 were 84.3% and 84.2%, respectively. For the same compound, the Kd (in test [2]; on CMYC G4 [4]) was 113 µM in each case. Also, in test [3], the “%Fluorescence” value is listed as 84.2%. In test [5], the binding result was “yes”. In addition, the “% of cells at G2/M” value in the test with SW480 cells (non-treated 7.65%) stood at 14.46%. Also, the “% of cells at S” value with SW480 cells (non-treated 34.16%) is on record as 43.82%. For the same compound, in the test on SW480 cells (non-treated 45.34%), the “% of cells at G1” value amounted to 28.30%.
